Assay results: ChEMBL document CHEMBL1130477, “Synthesis and structure-activity relationships of some novel oxetane carbapenems” (1997)
Converted amounts (≈) assume the structure as drawn.

Tests used:
[1] = system: Acinetobacter calcoaceticus; test: In vitro antibacterial activity against Acinetobacter calcoaceticus aceticus strain GC 756, expressed as MIC(minimum inhibitory concentration); assay type: functional
[2] = system: Citrobacter freundii; test: In vitro antibacterial activity against Citrobacter freundii strain GC 2211, expressed as MIC(minimum inhibitory concentration); assay type: functional
[3] = target: T1, Dipeptidase 1 (Sus scrofa) (UniProt P22412); test: (§1) Stability towards hog kidney dehydropeptidase (DHP) expressed as relative hydrolysis to imipenem
T1 sequence (whole entry): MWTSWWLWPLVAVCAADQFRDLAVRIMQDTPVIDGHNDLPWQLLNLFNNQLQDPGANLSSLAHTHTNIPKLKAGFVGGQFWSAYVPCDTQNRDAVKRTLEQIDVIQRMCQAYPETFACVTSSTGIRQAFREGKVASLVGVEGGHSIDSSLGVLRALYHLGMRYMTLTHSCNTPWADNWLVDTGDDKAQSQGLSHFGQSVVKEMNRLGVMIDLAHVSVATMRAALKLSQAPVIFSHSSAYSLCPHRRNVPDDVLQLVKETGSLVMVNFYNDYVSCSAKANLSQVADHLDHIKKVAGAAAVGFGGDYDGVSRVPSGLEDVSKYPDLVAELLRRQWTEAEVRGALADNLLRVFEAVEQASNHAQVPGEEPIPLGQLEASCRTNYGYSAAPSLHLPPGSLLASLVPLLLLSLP

[4] = system: Enterococcus faecalis; test: In vitro antibacterial activity against Enterococcus faecalis strain GC 842, expressed as MIC(minimum inhibitory concentration); assay type: functional
[5] = system: Enterobacter cloacae; test: In vitro antibacterial activity against Enterobacter cloacae strain GC 2209, expressed as MIC(minimum inhibitory concentration); assay type: functional
[6] = system: Escherichia coli; test: In vitro antibacterial activity against Escherichia coli strain ATCC 25922, expressed as MIC(minimum inhibitory concentration); assay type: functional
[7] = system: Escherichia coli; test: In vitro antibacterial activity against Escherichia coli strain GC 1792, expressed as MIC(minimum inhibitory concentration); assay type: functional
[8] = system: Escherichia coli; test: In vitro antibacterial activity against Escherichia coli strain GC 2205, expressed as MIC(minimum inhibitory concentration); assay type: functional
[9] = system: Morganella morganii; test: In vitro antibacterial activity against Morganella morganii strain GC 2213, expressed as MIC(minimum inhibitory concentration); assay type: functional
[10] = system: Pseudomonas aeruginosa; test: In vitro antibacterial activity against Pseudomonas aeruginosa strain ATCC 27853, expressed as MIC(minimum inhibitory concentration); assay type: functional
[11] = system: Pseudomonas aeruginosa; test: In vitro antibacterial activity against Pseudomonas aeruginosa strain GC 1544, expressed as MIC(minimum inhibitory concentration); assay type: functional
[12] = system: Staphylococcus aureus; test: In vitro antibacterial activity against Staphylococcus aureus strain ATCC 29213, expressed as MIC(minimum inhibitory concentration); assay type: functional
[13] = system: Staphylococcus aureus; test: In vitro antibacterial activity against Staphylococcus aureus strain GC 2220, expressed as MIC(minimum inhibitory concentration); assay type: functional
[14] = system: Stenotrophomonas maltophilia; test: In vitro antibacterial activity against Xanthomonas maltophilia strain GC 562, expressed as MIC(minimum inhibitory concentration); assay type: functional
[15] = system: Enterococcus faecium; test: In vitro antibacterial activity against Enterococcus faecium strain GC 1182, expressed as MIC(minimum inhibitory concentration); assay type: functional
[16] = target: T1, Dipeptidase 1 (Sus scrofa); test: as §1; assay type: functional, tissue-based

MIC [1] [µg/mL] | MIC [2] [µg/mL] | Relative hydrolysis [3] | MIC [4] [µg/mL] | MIC [5] [µg/mL] | MIC [6] [µg/mL] | MIC [7] [µg/mL] | MIC [8] [µg/mL] | MIC [9] [µg/mL] | MIC [10] [µg/mL] | MIC [11] [µg/mL] | MIC [12] [µg/mL] | MIC [13] [µg/mL] | MIC [14] [µg/mL] | MIC [15] [µg/mL] | Relative hydrolysis [16] | Compound
> 128 | > 128 | < 1 | 64 | > 128 | > 128 | > 128 | 2 | > 128 | > 128 | > 128 | 4 | 64 | > 128 | > 128 | – | COC(=O)[C@H]1O[C@H](COS(=O)(=O)c2ccc(C)cc2)[C@H]1SC1=C(C(=O)[O-])N2C(=O)[C@H]([C@@H](C)O)[C@H]2[C@H]1C.[Na+]
16 | 1 | – | 4 | 0.5 | 0.12 | 0.12 | 0.25 | 4 | 64 | 128 | 0.12 | 8 | > 128 | > 128 | – | C[C@H]1C(S[C@@H]2[C@@H](C)O[C@@H]2CN)=C(C(=O)[O-])N2C(=O)[C@H]([C@@H](C)O)C12.[Na+] (some centres not stated)
32 | 16 | < 1 | 16 | 4 | 0.5 | 1 | 0.25 | 4 | > 128 | > 128 | 2 | 32 | > 128 | > 128 | – | COC(=O)[C@H]1O[C@H](CO)[C@H]1SC1=C(C(=O)[O-])N2C(=O)[C@H]([C@@H](C)O)[C@H]2[C@H]1C.[Na+]
2 (≈ 5.84 µM) | 0.12 (≈ 0.35 µM) | – | 1 (≈ 2.92 µM) | < 0.06 | ≤ 0.06 | ≤ 0.06 | ≤ 0.06 | 0.5 (≈ 1.46 µM) | 4 (≈ 11.7 µM) | 16 (≈ 46.7 µM) | ≤ 0.06 | 2 (≈ 5.84 µM) | > 128 | 64 (≈ 187 µM) | 8.5 | CC1C(S[C@@H]2CCO[C@@H]2CN)=C(C(=O)O)N2C(=O)[C@H]([C@@H](C)O)[C@@H]12 (single isomer, unassigned)
16 (≈ 41.4 µM) | 1 (≈ 2.59 µM) | < 1 | 32 (≈ 82.8 µM) | 0.25 (≈ 0.647 µM) | 0.25 (≈ 0.647 µM) | 0.5 (≈ 1.29 µM) | 0.5 (≈ 1.29 µM) | 16 (≈ 41.4 µM) | 128 (≈ 331 µM) | > 128 | 1 (≈ 2.59 µM) | 32 (≈ 82.8 µM) | > 128 | > 128 | – | COC(=O)[C@H]1O[C@H](CN)[C@H]1SC1=C(C(=O)O)N2C(=O)[C@H]([C@@H](C)O)[C@H]2[C@H]1C
32 | 8 | – | 32 | 2 | 0.5 | 1 | 0.5 | 4 | > 64 | > 64 | 4 | > 64 | > 64 | > 64 | – | C[C@@H](O)[C@H]1C(=O)N2C(C(=O)[O-])=C(S[C@H]3[C@@H](C(=O)N(C)C)O[C@@H]3CO)[C@H](C)[C@H]12.[Na+]
4 (≈ 11.2 µM) | 1 (≈ 2.79 µM) | – | 4 (≈ 11.2 µM) | 0.25 (≈ 0.698 µM) | 0.12 (≈ 0.335 µM) | 0.25 (≈ 0.698 µM) | 0.25 (≈ 0.698 µM) | 2 (≈ 5.58 µM) | 16 (≈ 44.6 µM) | 32 (≈ 89.3 µM) | 0.12 (≈ 0.335 µM) | 8 (≈ 22.3 µM) | > 128 | > 128 | – | C[C@H]1C(S[C@H]2[C@@H](CN)O[C@@H]2CO)=C(C(=O)O)N2C(=O)[C@H]([C@@H](C)O)C12 (some centres not stated)

Compound | MIC [1] [µg/mL] | MIC [2] [µg/mL] | Relative hydrolysis [3] | MIC [4] [µg/mL] | MIC [5] [µg/mL] | MIC [6] [µg/mL] | MIC [7] [µg/mL] | MIC [8] [µg/mL] | MIC [9] [µg/mL] | MIC [10] [µg/mL] | MIC [11] [µg/mL] | MIC [12] [µg/mL] | MIC [13] [µg/mL] | MIC [14] [µg/mL] | MIC [15] [µg/mL] | Relative hydrolysis [16]
C[C@@H](O)[C@H]1C(=O)N2C(C(=O)O)=C(SCCNC=N)C[C@H]12 [IMIPENEM ANHYDROUS] | 0.5 (≈ 1.67 µM) | 0.5 (≈ 1.67 µM) | 100 | 1 (≈ 3.34 µM) | ≤ 0.06 | 0.12 (≈ 0.401 µM) | 0.12 (≈ 0.401 µM) | 0.12 (≈ 0.401 µM) | 2 (≈ 6.68 µM) | 2 (≈ 6.68 µM) | 16 (≈ 53.4 µM) | ≤ 0.06 | 1 (≈ 3.34 µM) | > 128 | 128 (≈ 428 µM) | –
